# Literature values as cited in patent US6441198B1, “Podophyllotoxin dimer as DNA topoisomerase II inhibitors, and a process for the preparation therefore” (Council of Scientific and Industrial Research, priority 2000, dated 2002).
# What was measured:
# [1] = system: human DNA topoisomerase II; settings: relative to etoposide
# [2] = system: human tumour cell lines
# [3] = system: cellular protein-DNA complex formation; settings: relative to etoposide
smiles,measurement,setting,value
"COc1cc(C2c3cc4c(cc3C(Nc3ccc(F)cc3)C3COC(=O)C23)OCO4)cc(OC)c1O (stereo not drawn) [NPF, 4′-0-demethyl-4β-(4″-fluoroanilino)-4-desoxypodophyllotoxin]",potency in inhibiting human DNA topoisomerase II compared to etoposide,[1],10 fold
same,activity in in vitro human tumour cell lines assay,[2],very active
same,activity in cellular protein-DNA complex formation compared to etoposide,[3],113 times
